Results published in patent US12167742B2, “Nutritional composition comprising 6′SL and LNT in combination to improve the gastrointestinal barrier function” (SOCIETE DES PRODUITS NESTLE S.A., priority 2018, dated 2024).

Biological target: GPR35 (Homo sapiens, UniProt Q9HC97)
Assay: PathHunter β-Arrestin assay, activation of GPR35 expressed in cultured cells (DiscoverX)
Assay type: cell-based
Settings: for activation of GPR35: Example 2, HMO screening, highest concentration tested 10 mM; for EC50: dose-response by 3× dilutions from 10 mM, duplicate, β-arrestin recruitment
Method: Six human milk oligosaccharides (LNnT, LNT, 2′FL, diFL, 6′SL and 3′SL) were screened for their ability to activate the GPR35 receptor in an in vitro assay. The screening was conducted by DiscoverX (Fremont, Ca, USA) using the PathHunter β-Arresin assay. This assay monitors the activation of GPR35 expressed in cultured cells, using Enzyme Fragment Complementation with β-galactosidase (β-Gal) as the functional reporter. […] EA is fused to β-Arrestin and PK is fused to GPR35. When the GPR35 is activated and β-Arrestin is recruited to the receptor, PK and EA complementation occurs, restoring β-Gal activity, which is measured using chemiluminescent Detection Reagents.
The GPR35 cell line was expanded from frozen stocks and cultured according to standard procedures. Cells were seeded in a total volume of 20 μL into white walled, 384-well microplates and incubated at 37° C. for the appropriate time prior to testing. All testing was done in duplicate.
HMO samples were shipped to DiscoverX as concentrated stocks in Phosphate Buffered saline. On the test day, a 5× compound working intermediate was prepared in PBS. An amount of 5 μL of 5× sample was added to cells and incubated at room temperature for 3 to 5 hours.
Assay signal was generated through a single addition of 12.5 μL (50% v/v) of PathHunter Detection reagent cocktail, followed by one-hour incubation at room temperature. Microplates were read following signal generation with a PerkinElmer Envision™ instrument for chemiluminescent signal detection.
Zaprinast (which is known to be an activator of GPR35) was used as positive control.
Percentage activity was calculated using the following formula: % Activity=100%×(mean RLU of test sample−mean RLU of vehicle control)/(mean MAX control ligand−mean RLU of vehicle control).
Dose-responses were generated by iterative 3× dilutions of the highest concentration tested (10 mM).
The samples were diluted in 1×PBS (pH˜7) at 5× concentrations and sent to DiscoverX. The GPR35 activation assay was performed as described in Example 2.

Chain of GPR35 (Q9HC97 whole entry): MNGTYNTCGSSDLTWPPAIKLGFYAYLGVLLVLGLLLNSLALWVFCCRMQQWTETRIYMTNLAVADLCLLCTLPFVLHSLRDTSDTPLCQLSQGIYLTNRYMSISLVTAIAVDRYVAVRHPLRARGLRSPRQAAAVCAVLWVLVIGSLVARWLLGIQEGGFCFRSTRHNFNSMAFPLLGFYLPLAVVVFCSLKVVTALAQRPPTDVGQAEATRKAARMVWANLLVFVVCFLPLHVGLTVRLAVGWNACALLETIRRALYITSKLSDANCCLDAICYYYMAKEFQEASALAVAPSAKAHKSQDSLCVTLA

activation of GPR35 | EC50 [mM] | SMILES
No activation | – | CC(=O)N[C@H]1[C@H](O[C@H]2[C@@H](O)[C@@H](CO)O[C@@H](O[C@H]3[C@H](O)[C@@H](O)C(O)O[C@@H]3CO)[C@@H]2O)O[C@H](CO)[C@@H](O[C@@H]2O[C@H](CO)[C@H](O)[C@H](O)[C@H]2O)[C@@H]1O (mixture of isomers) [LNnT, lacto-N-neotetraose]
No activation | – | CC(=O)N[C@H]1[C@H]([C@H](O)[C@H](O)CO)O[C@@](O[C@H]2[C@@H](O)[C@@H](CO)O[C@@H](O[C@H]3[C@H](O)[C@@H](O)C(O)O[C@@H]3CO)[C@@H]2O)(C(=O)O)C[C@@H]1O (some centres unmarked) [3′SL, 3′ sialyllactose]
– | 6.5 | CC(=O)N[C@H]1[C@H]([C@H](O)[C@H](O)CO)O[C@@](OC[C@H]2O[C@@H](O[C@H]3[C@H](O)[C@@H](O)[C@H](O)O[C@@H]3CO)[C@H](O)[C@@H](O)[C@H]2O)(C(=O)O)C[C@@H]1O [6′SL, 6′-sialyllactose]
– | 4.5 | CC(=O)N[C@H]1[C@H](O[C@H]2[C@@H](O)[C@@H](CO)O[C@@H](O[C@H]3[C@H](O)[C@@H](O)C(O)O[C@@H]3CO)[C@@H]2O)O[C@H](CO)[C@@H](O)[C@@H]1O[C@@H]1O[C@H](CO)[C@H](O)[C@H](O)[C@H]1O (some centres unmarked) [LNT, lacto-N-tetraose]
No activation | – | C[C@@H]1O[C@@H](O[C@H]2[C@H](O[C@H]3[C@H](O[C@@H]4O[C@@H](C)[C@@H](O)[C@@H](O)[C@@H]4O)[C@@H](O)C(O)O[C@@H]3CO)O[C@H](CO)[C@H](O)[C@@H]2O)[C@@H](O)[C@H](O)[C@@H]1O (some centres unmarked) [diFL, difucosyllactose]
